{
  "source": "patent US20070219243A1",
  "about": "“Method for improving the pharmacokinetics of HIV integrase inhibitors” (priority 2005, published 2007)",
  "experiment": "Example 1: multiple-dose safety of Compound 1 alone and with RTV",
  "format": "in vivo, human",
  "protocol": "The single-dose and multiple-dose pharmacokinetics of Compound 1 were also determined. The multiple-dose safety of Compound 1 administered alone and with RTV was also determined. Safety: Safety was evaluated by assessment of clinical laboratory tests at baseline and at various time points during the study; periodic physical examinations, including vital signs; and documentation of adverse events throughout the study. Safety: No statistical inference was performed for safety data in this pharmacokinetic study.",
  "key": {"[1]": {"details": "healthy subjects, Compound 1 100 mg twice daily alone, or with RTV 100 mg twice daily"}},
  "data": [
    {"smiles": "COc1cc2c(cc1Cc1cccc(Cl)c1F)c(=O)c(C(=O)O)cn2[C@H](CO)C(C)C", "note": "[Compound 1, 6-(3-chloro-2-fluorobenzyl)-1-[(2S)-1-hydroxy-3-methylbutan-2-yl]-7-methoxy-4-oxo-1,4-dihydroquinoline-3-carboxylic acid]", "values": [
      {"measurement": "Subjects with treatment-emergent AEs considered related to study drugs", "setting": "[1]", "result": "2 of 12"},
      {"measurement": "Subjects with treatment-emergent adverse events", "setting": "[1]", "result": "4 of 12"},
      {"measurement": "Tolerability", "setting": "oral, 100 mg twice daily, Compound 1 up to 20 days, with RTV 100 mg twice daily up to 10 days", "result": "well tolerated"}
    ]}
  ]
}
